Target: T1, Human ATX protein (Homo sapiens, UniProt Q13822)
T1 construct: made in house
Assay: ATX biochemical FRET assay with FS-3 substrate
Conditions: FS-3 substrate 2 μM, ATX 1.0 μg/mL, 30 min preincubation, 2 hours at room temperature
In short: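 In-house purified human ATX (1.0 μg/mL final) pre-incubated 30 min at room temperature with compound in Tris buffer pH 7.4 with salts and 1 mg/mL fatty acid-free BSA. FS-3 substrate (2 μM final) then hydrolysed 2 h at room temperature, protected from light; fluorescence read at 485/538 nm.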

| IC50 | Compound |
| --- | --- |
| ≤ 0.25 µM | O=C(O)CC1CN(Cc2ccc3c(C(F)(F)F)c(O[C@H]4CC[C@@H](C(F)(F)F)CC4)ccc3c2)C1 [Example 62, 2-(1-((5-(trifluoromethyl)-6-(4-cis-(trifluoromethyl)cyclohexyloxy)naphthalene-2-yl)methyl)azetidine-3-yl)acetic acid] |
| ≤ 0.5 µM | CC(NCc1ccc2c(C(F)(F)F)c(O[C@H]3CC[C@@H](C(F)(F)F)CC3)ccc2c1)C1CCC(C(=O)O)CC1 (relative stereo) [Example 41, 4-(1-((5-(trifluoromethyl)-6-((cis)-4-(trifluoromethyl)cyclohexyloxy)naphthalen-2-yl)methylamino)ethyl)cyclohexanecarboxylic acid] |
| ≤ 0.5 µM | O=C(O)[C@@H]1CCCN(Cc2ccc3c(C(F)(F)F)c(O[C@H]4CC[C@@H](C(F)(F)F)CC4)ccc3c2)C1 [Example 24, (R)-1-((5-(trifluoromethyl)-6-((cis)-4-(trifluoromethyl)cyclohexyloxy)naphthalen-2-yl)methyl)piperidine-3-carboxylic acid] |
| ≤ 0.5 µM | CC1(C)C(NCc2ccc3c(C(F)(F)F)c(OC4CCC(C(F)(F)F)CC4)ccc3n2)CC1C(=O)O (stereo not drawn) [Example 87, 2,2-dimethyl-3-((((5-(trifluoromethyl)-6-(cis-4-(trifluoromethyl)cyclo-hexyl)oxy)quinolin-2-yl)methyl)amino)cyclobutanecarboxylic acid] |
| ≤ 0.25 µM | CC(C)CC(NC1CC(C(=O)O)C1(C)C)c1ccc2c(C(F)(F)F)c(O[C@H]3CC[C@@H](C(F)(F)F)CC3)ccc2c1 (relative stereo) [Example 40, 2,2-dimethyl-3-(3-methyl-1-(5-(trifluoromethyl)-6-((cis)-4-(trifluoromethyl)cyclohexyloxy)naphthalen-2-yl)butylamino)cyclobutanecarboxylic acid] |
